Laboratory results taken from patent US20260317324A1, “BIFUNCTIONAL COMPOUNDS FOR DEGRADING BRAF VIA UBIQUITIN PROTEOSOME PATHWAY” (Nurix Therapeutics, Inc., priority 2023, published 2026).

Columns and labels:
Type in all cases: cell-based
BRAF G466V = target: T1, BRAF G466V (Homo sapiens, UniProt P15056, G466V); assay: BRAF HiBiT degradation assay, C-terminal HiBiT-tagged BRAF G466V overexpressed in HCT-116 BRAF−/− cells (clone 8), Nano-Glo HiBiT Lytic assay
T1 construct: Horizon Discovery (HCT-116 BRAF−/− cells); host or cells: HCT-116 BRAF−/− cells, clone 8, lentiviral transduction
T1 sequence (P15056 whole entry G466V): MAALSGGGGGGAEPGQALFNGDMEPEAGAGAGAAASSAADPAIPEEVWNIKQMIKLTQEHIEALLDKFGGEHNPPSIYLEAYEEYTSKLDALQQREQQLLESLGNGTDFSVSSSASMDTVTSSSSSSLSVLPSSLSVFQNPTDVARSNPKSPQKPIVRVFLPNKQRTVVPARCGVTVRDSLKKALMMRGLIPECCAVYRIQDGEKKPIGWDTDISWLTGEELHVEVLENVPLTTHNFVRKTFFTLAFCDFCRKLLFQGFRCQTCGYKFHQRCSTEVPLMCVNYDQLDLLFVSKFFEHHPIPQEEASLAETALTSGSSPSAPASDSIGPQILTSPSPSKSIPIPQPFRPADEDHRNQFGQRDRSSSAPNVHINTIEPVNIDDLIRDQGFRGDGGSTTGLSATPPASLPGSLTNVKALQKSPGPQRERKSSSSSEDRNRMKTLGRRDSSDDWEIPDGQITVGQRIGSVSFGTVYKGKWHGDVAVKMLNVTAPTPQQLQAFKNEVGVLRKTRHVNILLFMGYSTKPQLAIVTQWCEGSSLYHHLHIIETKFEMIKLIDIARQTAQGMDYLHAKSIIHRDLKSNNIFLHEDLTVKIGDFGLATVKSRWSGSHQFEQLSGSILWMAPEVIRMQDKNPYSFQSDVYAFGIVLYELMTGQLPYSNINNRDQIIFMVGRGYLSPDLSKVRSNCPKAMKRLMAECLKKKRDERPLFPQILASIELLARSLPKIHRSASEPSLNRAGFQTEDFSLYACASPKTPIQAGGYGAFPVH
Summary of the method: (§1)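 Degradation assay in HCT-116 BRAF−/− cells carrying lentiviral HiBiT-tagged mutant BRAF. The readout is % protein remaining across 1 μM to 0.01 nM compound, and DC50 marks 50% remaining.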

BRAF D594G = target: T2, BRAF D594G (Homo sapiens, UniProt P15056, D594G); assay: BRAF HiBiT degradation assay, C-terminal HiBiT-tagged BRAF D594G overexpressed in HCT-116 BRAF−/− cells (clone 63), Nano-Glo HiBiT Lytic assay
T2 construct: Horizon Discovery (HCT-116 BRAF−/− cells); host or cells: HCT-116 BRAF−/− cells, clone 63, lentiviral transduction
T2 sequence (P15056 whole entry D594G): as the sequence (P15056 whole entry G466V) above, with V466G, D594G counted along it
Summary of the method: as §1

BRAF V600E = target: T3, BRAF V600E (Homo sapiens, UniProt P15056, V600E); assay: BRAF HiBiT degradation assay, C-terminal HiBiT-tagged BRAF V600E A375 cells (clone 1F10), Nano-Glo HiBiT Lytic assay; conditions: for Dmax: A-375
T3 construct: endogenous C-terminal HiBiT fusion tag on BRAF V600E allele; endogenous in cells; host or cells: A375 clone 1F10 (CRISPR-Cas9 knock-in of the HiBiT tag; parental A375 from ATCC)
T3 sequence (P15056 whole entry V600E, the tested form may be a part): as the sequence (P15056 whole entry G466V) above, with V466G, V600E counted along it
Summary of the method: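 Using CRISPR-engineered A375 cells that carry a C-terminal HiBiT tag on endogenous BRAF V600E, remaining protein was quantified by lytic luminescence relative to DMSO-treated cells, with wildtype A375 as the background control. DC50 denotes the concentration giving 50% degradation.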

BRAF G469A = target: T4, BRAF G469A (Homo sapiens, UniProt P15056, G469A); assay: BRAF HiBiT degradation assay, C-terminal HiBiT-tagged BRAF G469A overexpressed in HCT-116 BRAF−/− cells (clone 34), Nano-Glo HiBiT Lytic assay
T4 construct: Horizon Discovery (HCT-116 BRAF−/− cells); host or cells: HCT-116 BRAF−/− cells, clone 34, lentiviral transduction
T4 sequence (P15056 whole entry G469A): as the sequence (P15056 whole entry G466V) above, with V466G, G469A counted along it
Summary of the method: as §1

[1] = BRAF G466V, DC50 at 50%: fitted conc. at Y=50
[2] = HCT-116, BRAF G466V, percentage protein degraded at maximal compound effect relative to DMSO
[3] = BRAF D594G, DC50 at 50%: fitted conc. at Y=50
[4] = HCT-116, BRAF D594G, percentage protein degraded at maximal compound effect relative to DMSO
[5] = A375 (BRAF V600E), DC50 at 50%: fitted conc. at Y=50
[6] = A375 (BRAF V600E), percentage protein degraded at maximal compound effect relative to DMSO
[7] = Class 2, BRAF G469A, DC50 at 50%: fitted conc. at Y=50
[8] = HCT-116, Class 2, BRAF G469A, percentage protein degraded at maximal compound effect relative to DMSO

Structure (SMILES) | DC50 (BRAF G466V; BRAF G466V (Class 3), HCT-116 BRAF−/− cells, DC50 at 50% degradation) [nM] | Dmax (BRAF G466V; BRAF G466V (Class 3), HCT-116 BRAF−/− cells, observed Dmax relative to DMSO control) [%] | DC50 (BRAF D594G; BRAF D594G (Class 3), HCT-116 BRAF−/− cells, DC50 at 50% degradation) [nM] | Dmax (BRAF D594G; BRAF D594G (Class 3), HCT-116 BRAF−/− cells, observed Dmax relative to DMSO control) [%] | DC50 (BRAF V600E; A375 (BRAF V600E, Class 1), DC50 at 50% degradation) [nM] | Dmax (BRAF V600E; A375 (BRAF V600E, Class 1), observed Dmax, % protein degraded relative to DMSO control) [%] | DC50 (BRAF G469A; BRAF G469A (Class 2), HCT-116 BRAF−/− cells, DC50 at 50% degradation) [nM] | Dmax (BRAF G469A; BRAF G469A (Class 2), HCT-116 BRAF−/− cells, observed Dmax relative to DMSO control) [%] | DC50 (BRAF G466V; [1]) [nM] | Dmax (BRAF G466V; [2]) [%] | DC50 (BRAF D594G; [3]) [nM] | Dmax (BRAF D594G; [4]) [%] | DC50 (BRAF V600E; [5]) [nM] | Dmax (BRAF V600E; [6]) [%] | DC50 (BRAF G469A; [7]) [nM] | Dmax (BRAF G469A; [8]) [%]
CCCS(=O)(=O)Nc1cccc(-c2nc(C3CCC4(CC3)CN(C(=O)CC3CCN(C5CCN(c6ccc7c(c6)C(=O)N(C6CCC(=O)NC6=O)C7=O)CC5)CC3)C4)sc2-c2ccnc(N)n2)c1F (racemic) [Compound 247, Rac-N-{3-[5-(2-aminopyrimidin-4-yl)-2-{2-[2-(1′-{2-[(3R)-2,6-dioxopiperidin-3-yl]-1,3-dioxo-2,3-dihydro-1H-isoindol-5-yl}-[1,4′-bipiperidin]-4-yl)acetyl]-2-azaspiro[3.5]nonan-7-yl}-1,3-thiazol-4-yl]-2-fluorophenyl}propane-1-sulfonamide] | > 500 | 30 to 70 | > 500 | 30 to 70 | 10 to 50 | > 70 | > 500 | < 30 |  |  |  |  |  |  |  | 
CCCS(=O)(=O)Nc1cccc(-c2nc(C(C)(C)C)sc2-c2ccnc(Nc3ccc(C4CCN(CC5CCN(c6ccc([C@H]7CCC(=O)NC7=O)cc6)CC5)CC4)cc3)n2)c1F [Compound 89, N-[3-(2-tert-butyl-5-{2-[(4-{1-[(1-{4-[(3R)-2,6-dioxopiperidin-3-yl]phenyl}piperidin-4-yl)methyl]piperidin-4-yl}phenyl)amino]pyrimidin-4-yl}-1,3-thiazol-4-yl)-2-fluorophenyl]propane-1-sulfonamide] |  |  |  |  |  |  |  |  | > 500 | 30 to 70 | > 500 | 30 to 70 | 10 to 50 | > 70 | > 500 | 30 to 70

The remaining lines, values ahead:

DC50 (BRAF G466V; BRAF G466V (Class 3), HCT-116 BRAF−/− cells, DC50 at 50% degradation) [nM] | Dmax (BRAF G466V; BRAF G466V (Class 3), HCT-116 BRAF−/− cells, observed Dmax relative to DMSO control) [%] | DC50 (BRAF D594G; BRAF D594G (Class 3), HCT-116 BRAF−/− cells, DC50 at 50% degradation) [nM] | Dmax (BRAF D594G; BRAF D594G (Class 3), HCT-116 BRAF−/− cells, observed Dmax relative to DMSO control) [%] | DC50 (BRAF V600E; A375 (BRAF V600E, Class 1), DC50 at 50% degradation) [nM] | Dmax (BRAF V600E; A375 (BRAF V600E, Class 1), observed Dmax, % protein degraded relative to DMSO control) [%] | DC50 (BRAF G469A; BRAF G469A (Class 2), HCT-116 BRAF−/− cells, DC50 at 50% degradation) [nM] | Dmax (BRAF G469A; BRAF G469A (Class 2), HCT-116 BRAF−/− cells, observed Dmax relative to DMSO control) [%] | DC50 (BRAF G466V; [1]) [nM] | Dmax (BRAF G466V; [2]) [%] | DC50 (BRAF D594G; [3]) [nM] | Dmax (BRAF D594G; [4]) [%] | DC50 (BRAF V600E; [5]) [nM] | Dmax (BRAF V600E; [6]) [%] | DC50 (BRAF G469A; [7]) [nM] | Dmax (BRAF G469A; [8]) [%] | Structure (SMILES)
 |  |  |  |  |  |  |  | > 500 | < 30 | > 500 | 30 to 70 | 50 to 500 | 30 to 70 | > 500 | < 30 | CCCS(=O)(=O)Nc1cccc(-c2nc(C(C)(C)C3CCN(C(=O)C4CN(C5CCN(c6ccc7c(c6)C(=O)N(C6CCC(=O)NC6=O)C7=O)CC5)C4)CC3)sc2-c2ccnc(N)n2)c1F (racemic) [Compound 243, Rac-N-{3-[5-(2-aminopyrimidin-4-yl)-2-(2-{1-[1-(1-{2-[(3R)-2,6-dioxopiperidin-3-yl]-1,3-dioxo-2,3-dihydro-1H-isoindol-5-yl}piperidin-4-yl)azetidine-3-carbonyl]piperidin-4-yl}propan-2-yl)-1,3-thiazol-4-yl]-2-fluorophenyl}propane-1-sulfonamide]
 |  |  |  |  |  |  |  | > 500 | < 30 | > 500 | < 30 | < 10 | > 70 | > 500 | < 30 | CCCS(=O)(=O)Nc1cccc(-c2nc(C(C)(C)C)sc2-c2ccnc(Nc3cnn(C4CCN(C(=O)[C@H]5CC[C@H](Oc6ccc(C7CCC(=O)NC7=O)cn6)CC5)CC4)c3)n2)c1F (mixture of isomers) [Compound 109, N-[3-(2-tert-butyl-5-{2-[(1-{1-[(1r,4r)-4-({5-[(3RS)-2,6-dioxopiperidin-3-yl]pyridin-2-yl}oxy)cyclohexanecarbonyl]piperidin-4-yl}-1H-pyrazol-4-yl)amino]pyrimidin-4-yl}-1,3-thiazol-4-yl)-2-fluorophenyl]propane-1-sulfonamide]
 |  |  |  |  |  |  |  | 10 to 50 | > 70 | < 10 | 30 to 70 | 10 to 50 | > 70 | 10 to 50 | 30 to 70 | CCN(C)S(=O)(=O)Nc1cccc(-c2nc(C(C)(C)C)sc2-c2ccnc(Nc3ccc(N4CCN(CC5CCN(c6ccc(C7CCC(=O)NC7=O)cn6)CC5)CC4)cn3)n2)c1F (racemic) [Compound 126, Rac-(3S)-3-{6-[4-({4-[6-({4-[2-tert-butyl-4-(3-{[ethyl(methyl)sulfamoyl]amino}-2-fluorophenyl)-1,3-thiazol-5-yl]pyrimidin-2-yl}amino)pyridin-3-yl]piperazin-1-yl}methyl)piperidin-1-yl]pyridin-3-yl}piperidine-2,6-dione]
